# Measurements published in publication PMC4114247 (Cancer research, 2009).
# Columns and labels:
# [1] = target: NAALADase activity of PSMA (Homo sapiens, UniProt Q04609); experiment: NAALADase inhibition in LNCaP cell lysates; assay type: biochemical
# [2] = target: PSMA on human prostate cancer LNCaP cells (Homo sapiens, UniProt Q04609); experiment: Saturation binding analysis on LNCaP cells
# Chain of PSMA on human prostate cancer LNCaP cells (Q04609 whole entry): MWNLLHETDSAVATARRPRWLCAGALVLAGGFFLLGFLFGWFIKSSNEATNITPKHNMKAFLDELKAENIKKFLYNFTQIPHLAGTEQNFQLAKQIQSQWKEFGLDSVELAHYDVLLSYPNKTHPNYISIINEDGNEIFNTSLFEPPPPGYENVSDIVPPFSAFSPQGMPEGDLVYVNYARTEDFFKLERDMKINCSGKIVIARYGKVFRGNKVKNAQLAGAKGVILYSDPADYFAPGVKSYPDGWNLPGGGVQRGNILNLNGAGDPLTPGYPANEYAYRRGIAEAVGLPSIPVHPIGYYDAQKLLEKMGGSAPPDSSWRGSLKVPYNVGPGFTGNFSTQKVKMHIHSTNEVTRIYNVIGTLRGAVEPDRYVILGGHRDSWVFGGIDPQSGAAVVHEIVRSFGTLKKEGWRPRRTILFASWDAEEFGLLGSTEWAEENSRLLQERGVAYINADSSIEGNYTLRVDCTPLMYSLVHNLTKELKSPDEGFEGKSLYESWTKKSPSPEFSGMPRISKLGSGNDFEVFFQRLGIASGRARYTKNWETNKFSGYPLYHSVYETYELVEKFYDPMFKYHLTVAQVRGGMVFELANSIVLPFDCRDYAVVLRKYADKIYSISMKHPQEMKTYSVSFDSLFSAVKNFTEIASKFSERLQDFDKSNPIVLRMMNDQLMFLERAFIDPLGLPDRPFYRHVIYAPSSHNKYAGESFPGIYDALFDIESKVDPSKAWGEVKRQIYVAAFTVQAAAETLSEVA
# Chain of NAALADase activity of PSMA (Q04609 whole entry): as above
smiles,measurement,setting,value
"O=C(O)CC[C@H](NC(=O)N[C@@H](CCCCNCc1ccc(I)cc1)C(=O)O)C(=O)O [MIP-1072, (S)-2-(3-((S)-1-carboxy-5-(4–iodobenzylamino)pentyl)ureido)pentanedioic acid]",Ki,[1],4.6 ± 1.6 nM
same,Kd,[2],3.8 ± 1.3 nM
